The values that follow come from patent publication EP4588921A1, “FREE BASE CRYSTAL FORM OF POLYCYCLIC COMPOUND OF NITROGEN-CONTAINING HETEROCYCLE, AND PREPARATION METHOD THEREFOR” (Jiangsu Hansoh Pharmaceutical Group Co., Ltd., priority 2022, dated 2024).

The target in one data set is T1, human OX1R (Homo sapiens, UniProt O43613).
T1 construct: expressed in transfected cells; host or cells: CHO-K1
T1 sequence (O43613 1-425): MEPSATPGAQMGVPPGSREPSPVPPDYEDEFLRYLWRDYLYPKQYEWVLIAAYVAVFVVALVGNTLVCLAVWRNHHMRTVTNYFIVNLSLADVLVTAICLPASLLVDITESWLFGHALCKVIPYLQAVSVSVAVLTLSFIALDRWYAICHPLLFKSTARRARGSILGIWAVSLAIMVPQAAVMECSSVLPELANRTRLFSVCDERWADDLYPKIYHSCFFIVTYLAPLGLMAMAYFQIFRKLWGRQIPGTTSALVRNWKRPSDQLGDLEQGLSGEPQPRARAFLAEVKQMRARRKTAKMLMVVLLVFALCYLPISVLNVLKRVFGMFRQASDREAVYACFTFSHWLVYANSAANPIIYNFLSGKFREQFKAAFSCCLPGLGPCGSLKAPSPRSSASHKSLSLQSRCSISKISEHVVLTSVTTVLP
As to the kind of experiment: Calcium current (FLIPR) in cells stably expressing OX1 receptor. In kind it is cell-based. To be noted: CHO-K1/human OX1R cells; agonist OX-A at EC80; FLIPR Tetra. As to the method: (§1) Determination of the effect of the compounds of the present invention on calcium current in cells stably expressing OX1 and OX2 receptors 1. Experimental objective: The inhibitory effect of the compounds on calcium current activity in CHO-K1/human OX1R and CHO-K1/human OX2R cells was detected. 2. […] 3. […] The IC50 of the positive compounds and test compounds was determined. 4. Experimental data processing method: FLIPR Tetra was used to read and collect the fluorescence signal value (RFU). […] 5.

In a further data set the target is T2, human OX2R (Homo sapiens, UniProt O43614).
T2 construct: expressed in transfected cells; host or cells: CHO-K1
T2 sequence (O43614 1-444): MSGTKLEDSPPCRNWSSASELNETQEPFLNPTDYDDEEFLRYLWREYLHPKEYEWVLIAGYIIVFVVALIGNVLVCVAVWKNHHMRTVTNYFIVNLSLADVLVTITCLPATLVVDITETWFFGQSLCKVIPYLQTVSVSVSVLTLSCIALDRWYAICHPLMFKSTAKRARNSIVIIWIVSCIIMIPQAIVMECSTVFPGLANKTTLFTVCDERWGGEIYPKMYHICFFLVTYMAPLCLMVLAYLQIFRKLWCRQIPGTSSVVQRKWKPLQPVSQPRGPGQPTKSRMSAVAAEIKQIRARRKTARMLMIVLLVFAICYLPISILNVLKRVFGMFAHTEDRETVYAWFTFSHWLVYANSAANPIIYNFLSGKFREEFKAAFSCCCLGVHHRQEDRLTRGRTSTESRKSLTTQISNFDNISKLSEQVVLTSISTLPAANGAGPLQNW
As to the kind of experiment: Calcium current (FLIPR) in cells stably expressing OX2 receptor. In kind it is cell-based. To be noted: for IC50: CHO-K1/human OX2R cells, agonist OX-B at EC80, FLIPR Tetra; for Select fold: OX1R IC50 over OX2R IC50. As to the method:
as §1

The next data set is described as follows: in vivo. To be noted: male, SD, rat, po, 5 mg/kg. As to the method:
SD rats were used as test animals to study the pharmacokinetic behaviour of the compounds of the present invention in rat (plasma) after oral administration at a dose of 5 mg/kg.
The example compound of the present invention, made in house.
Oral administration drug preparation: 20%HP-β-CD in Water
HP-β-CD powder (20 g) was weighed and dissolved in purified water (100 mL), and the mixture was homogeneously mixed by vortex and subjected to ultrasound treatment to afford a clear solution.
The example compound was weighed and added to a 20 mL glass bottle, the solution was added and the mixture was subjected to ultrasound treatment for 10 minutes to afford a colourless clear solution with a concentration of 0.5 mg/mL.
The brain tissues were rinsed with pre-cooled PBS, wiped dry, weighed, and stored at -80°C.
• 1) Acetonitrile (160 µL) was added to plasma sample (40 µL) for precipitation, and the mixture was mixed and centrifuged at 3500 × g for 5 to 20 minutes. • 2) The treated supernatant solution was taken and subjected to LC/MS/MS to analyse the concentrations of the test compounds. LC/MS/MS analysis instrument: AB Sciex API 4000 Qtrap.
• Liquid phase conditions: Shimadzu LC-20AD pump • Chromatographic column: Agilent ZORBAX XDB-C18 (50×2.1 mm, 3.5 µm) mobile phase: liquid A: 0.1% aqueous formic acid solution, liquid B: acetonitrile • Flow rate: 0.4 mL/min • Elution time: 0-4.0 min, the eluent is as follows:
The main pharmacokinetic parameters were calculated using WinNonlin 6.1.

In general, IC50 refers to the midpoint of a concentration-inhibition curve. With `Cc1nc(N2C[C@H]3CN(C(=O)c4ccc(F)cc4-n4nccn4)C[C@H]3C2)nc(C(C)(C)O)c1F` [Compound 10, (4-fluoro-2-(2H-1,2,3-triazol-2-yl)phenyl)((cis)-5-(5-fluoro-4-(2-hydroxypropan-2-yl)-6-methylpyrimidin-2-yl)hexahydropyrrolo [3,4-c]pyrrol-2(1H)-yl)methanone], at human OX1R, the half-maximal inhibitory concentration (IC50) turned out to be 1200 nM. Also, on human OX2R, the IC50 was determined as 25.2 nM and the Select fold is reported as 48.

What is called AUC(0-inf) is total exposure, with the tail of the curve extrapolated. A high value points to high exposure. The Cmax is the highest concentration seen after dosing. By Tmax is commonly meant the time from dosing to the highest level. For `Cc1nc(N2C[C@H]3CN(C(=O)c4c(F)cccc4-c4ccccn4)C[C@H]3C2)nc(C(C)(C)O)c1F` [Compound 12, ((3aR,6aS)-5-(5-fluoro-4-(2-hydroxypropan-2-yl)-6-methylpyrimidin-2-yl)hexahydropyrrolo[3,4-c]pyrrol-2(1H)-yl)(2-fluoro-6-(pyridin-2-yl)phenyl)methanone], the IC50 at human OX1R is 263 nM. For the same molecule, at human OX2R, the IC50 is 7.26 nM and the Select fold turned out to be 36. In the data set “in vivo”, the AUC(0-inf) stood at 335 ng·h/mL, the Cmax stood at 420 ng/mL and the Tmax came out at 30 min.
